In patent US20250296959A1, “B7-H3 TARGETING PEPTIDES AND CONSTRUCTS THEREOF” (Mariana Oncology Inc., priority 2024, published 2025):
Starred links: 1 amine or outer side, 2 acyl side, 3 side chain; linkers in the order of their positions; H or OH if unused. Positions of bridges follow the written chain, without caps; N, C: chain ends. Non-standard residues stand in square brackets, D forms with d. Residues, ends and D or L forms follow the SMILES beside them. Groups on a side chain read outwards from the residue. *: point of attachment. X4 = O=C(O)CN1CCN(CC(=O)O)CCN([C@H](CCC(=O)*)C(=O)O)CCN(CC(=O)O)CC1; Ala(piperidin-4-yl) = O=C([C@H](CC1CCN([*:3])CC1)N[*:1])[*:2]; Phe(3R-OH) = O=C([C@@H](N[*:1])[C@H](O[*:3])c1ccccc1)[*:2]; DOTA = O=C(O)CN1CCN(CC(=O)O)CCN(CC(=O)*)CCN(CC(=O)O)CC1; Trp(4-Cl) = N[C@@H](Cc1c[nH]c2cccc(Cl)c12)C(=O)O; Trp(5-Cl) = N[C@@H](Cc1c[nH]c2ccc(Cl)cc12)C(=O)O; Trp(4-Me) = Cc1cccc2[nH]cc(C[C@H](N)C(=O)O)c12; Trp(5-F) = N[C@@H](Cc1c[nH]c2ccc(F)cc12)C(=O)O; Trp(5-Me) = Cc1ccc2[nH]cc(C[C@H](N)C(=O)O)c2c1; Trp(1-Me) = Cn1cc(C[C@H](N)C(=O)O)c2ccccc21; γGlu = O=C(O)[C@H](CCC(=O)[*:2])N[*:1]; Ala(4-THP) = N[C@@H](CC1CCOCC1)C(=O)O; Phe(2-OH) = N[C@@H](Cc1ccccc1O)C(=O)O; Phe(2-F) = N[C@@H](Cc1ccccc1F)C(=O)O; Val(3-OH) = CC(C)(O)[C@H](N)C(=O)O; Tle = CC(C)(C)[C@H](N)C(=O)O; hLeu = CC(C)CC[C@H](N)C(=O)O

Biological target: T1, human 4lg B7-H3 (Homo sapiens, UniProt Q5ZPR3)
T1 sequence (Q5ZPR3 29-534): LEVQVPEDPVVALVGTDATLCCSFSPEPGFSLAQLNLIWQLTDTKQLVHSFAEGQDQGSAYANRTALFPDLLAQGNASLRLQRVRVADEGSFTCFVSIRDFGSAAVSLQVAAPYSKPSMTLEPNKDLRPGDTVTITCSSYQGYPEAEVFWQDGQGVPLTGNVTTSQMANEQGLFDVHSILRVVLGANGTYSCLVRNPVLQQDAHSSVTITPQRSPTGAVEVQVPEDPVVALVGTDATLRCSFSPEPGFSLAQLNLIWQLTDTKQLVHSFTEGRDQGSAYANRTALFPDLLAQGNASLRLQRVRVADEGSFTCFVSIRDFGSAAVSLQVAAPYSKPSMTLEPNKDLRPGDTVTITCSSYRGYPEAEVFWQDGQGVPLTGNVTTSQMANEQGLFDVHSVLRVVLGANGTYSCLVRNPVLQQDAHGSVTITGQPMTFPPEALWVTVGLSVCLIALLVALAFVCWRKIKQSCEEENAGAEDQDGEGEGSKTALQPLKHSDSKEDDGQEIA
Experiment: Affinity determination by surface plasmon resonance (SPR) to 4Ig B7-H3
Conditions: SPR KD—37° C., 4Ig B7-H3; 37° C. flow cell temperature

Row | Kd [nM] | Compound
1 | < 1 | CC(=O)N[C@@H](CCC(C)C)C(=O)N[C@@H](Cc1ccc(O)cc1)C(=O)N[C@H]1CSSC[C@@H](C(=O)N[C@@H](Cc2c[nH]c3ccc(Cl)cc23)C(=O)N[C@@H](Cc2ccccc2)C(=O)N[C@H](C(=O)N[C@H](CCCCNC(=O)CN2CCN(CC(=O)O)CCN(CC(=O)O)CCN(CC(=O)O)CC2)C(=O)O)C(C)(C)O)NC(=O)[C@H](Cc2ccc(O)cc2)NC(=O)[C@H](C(C)C)NC(=O)[C@H](CC(=O)O)NC(=O)[C@H](CC2CCOCC2)NC(=O)[C@H](CC2CCNCC2)NC(=O)CNC(=O)[C@H](C(C)(C)C)NC1=O [compound 457, Ac-hLeu-Y-C-Tbg-G-PipAla-ThpA-D-V-Y-C-5ClW-F-hydroxyVal-dLys(DOTA)-COOH] (Ac-[hLeu]YC[Tle]G[Ala(piperidin-4-yl)][Ala(4-THP)]DVYC[Trp(5-Cl)]F[Val(3-OH)][dK](DOTA)-OH; disulfide 3-11)
2 | < 1 | CC(=O)N[C@@H](CCC(C)C)C(=O)N[C@@H](Cc1ccc(O)cc1)C(=O)N[C@H]1CSSC[C@@H](C(=O)N[C@@H](Cc2c[nH]c3ccc(F)cc23)C(=O)N[C@@H](Cc2ccccc2)C(=O)N[C@H](C(=O)N[C@H](CCC(=O)O)C(N)=O)C(C)(C)O)NC(=O)[C@H](Cc2ccc(O)cc2)NC(=O)[C@H](C(C)C)NC(=O)[C@H](CC(=O)O)NC(=O)[C@H](CC2CCN(C(=O)CC[C@H](NC(=O)CN3CCN(CC(=O)O)CCN(CC(=O)O)CCN(CC(=O)O)CC3)C(=O)O)CC2)NC(=O)[C@H](CC2CCNCC2)NC(=O)CNC(=O)[C@H](C(C)(C)C)NC1=O [compound 459, Ac-hLeu-Y-C-Tbg-G-PipAla-Pip(gE-DOTA)Ala-D-V-Y-C-5FW-F-hydroxyVal-dGlu-CONH2] (Ac-[hLeu]YC[Tle]G[Ala(piperidin-4-yl)][Ala(piperidin-4-yl)]([γGlu-DOTA])DVYC[Trp(5-F)]F[Val(3-OH)][dE]-NH2; disulfide 3-11)
3 | < 1 | CC(=O)N[C@@H](CCC(C)C)C(=O)N[C@@H](Cc1ccc(O)cc1)C(=O)N[C@H]1CSSC[C@@H](C(=O)N[C@@H](Cc2c[nH]c3ccc(F)cc23)C(=O)N[C@@H](Cc2ccccc2)C(=O)N[C@H](C(=O)N[C@H](CCC(=O)O)C(N)=O)C(C)(C)O)NC(=O)[C@H](Cc2ccc(O)cc2)NC(=O)[C@H](C(C)C)NC(=O)[C@H](CC(=O)O)NC(=O)[C@H](CC2CCN(C(=O)CC[C@H](C(=O)O)N3CCN(CC(=O)O)CCN(CC(=O)O)CCN(CC(=O)O)CC3)CC2)NC(=O)[C@H](CC2CCNCC2)NC(=O)CNC(=O)[C@H](C(C)(C)C)NC1=O [compound 460, Ac-hLeu-Y-C-Tbg-G-PipAla-Pip(R-DOTAGA)Ala-D-V-Y-C-5FW-F-hydroxyVal-dGlu-CONH2] (Ac-[hLeu]YC[Tle]G[Ala(piperidin-4-yl)][Ala(piperidin-4-yl)](X4)DVYC[Trp(5-F)]F[Val(3-OH)][dE]-NH2; disulfide 3-11)
4 | < 1 | CC(=O)N[C@@H](CCC(C)C)C(=O)N[C@@H](Cc1ccc(O)cc1)C(=O)N[C@H]1CSSC[C@@H](C(=O)N[C@@H](Cc2cn(C)c3ccccc23)C(=O)N[C@@H](Cc2ccccc2)C(=O)N[C@H](C(=O)N[C@H](CCCCNC(=O)CN2CCN(CC(=O)O)CCN(CC(=O)O)CCN(CC(=O)O)CC2)C(=O)O)C(C)(C)O)NC(=O)[C@H](Cc2ccc(O)cc2)NC(=O)[C@H](C(C)C)NC(=O)[C@H](CC(=O)O)NC(=O)[C@H](CC2CCOCC2)NC(=O)[C@H](CC2CCNCC2)NC(=O)CNC(=O)[C@H](C(C)(C)C)NC1=O [compound 462, Ac-hLeu-Y-C-Tbg-G-PipAla-ThpA-D-V-Y-C-Trp(Me)-F-hydroxyVal-dLys(DOTA)-COOH] (Ac-[hLeu]YC[Tle]G[Ala(piperidin-4-yl)][Ala(4-THP)]DVYC[Trp(1-Me)]F[Val(3-OH)][dK](DOTA)-OH; disulfide 3-11)
5 | 1 to 10 | CC(=O)N[C@@H](CCC(C)C)C(=O)N[C@@H](Cc1ccc(O)cc1)C(=O)N[C@H]1CSSC[C@@H](C(=O)N[C@@H](Cc2c[nH]c3ccc(F)cc23)C(=O)N[C@@H](Cc2ccccc2)C(=O)N[C@H](C(=O)N[C@H](CCCCNC(=O)CN2CCN(CC(=O)O)CCN(CC(=O)O)CCN(CC(=O)O)CC2)C(=O)O)C(C)(C)O)NC(=O)[C@H](Cc2ccccc2O)NC(=O)[C@H](C(C)C)NC(=O)[C@H](CC(=O)O)NC(=O)[C@H](CC2CCOCC2)NC(=O)[C@H](CC2CCNCC2)NC(=O)CNC(=O)[C@H](C(C)(C)C)NC1=O [compound 467, Ac-hLeu-Y-C-Tbg-G-PipAla-ThpA-D-V-20HPhe-C-5FW-F-hydroxyVal-dLys(DOTA)-COOH] (Ac-[hLeu]YC[Tle]G[Ala(piperidin-4-yl)][Ala(4-THP)]DV[Phe(2-OH)]C[Trp(5-F)]F[Val(3-OH)][dK](DOTA)-OH; disulfide 3-11)
6 | < 1 | CC(=O)N[C@@H](CCC(C)C)C(=O)N[C@@H](Cc1ccc(O)cc1)C(=O)N[C@H]1CSSC[C@@H](C(=O)N[C@@H](Cc2c[nH]c3ccc(F)cc23)C(=O)N[C@H](C(=O)N[C@H](C(=O)N[C@H](CCCCNC(=O)CN2CCN(CC(=O)O)CCN(CC(=O)O)CCN(CC(=O)O)CC2)C(=O)O)C(C)(C)O)[C@H](O)c2ccccc2)NC(=O)[C@H](Cc2ccc(O)cc2)NC(=O)[C@H](C(C)C)NC(=O)[C@H](CC(=O)O)NC(=O)[C@H](CC2CCOCC2)NC(=O)[C@H](CC2CCNCC2)NC(=O)CNC(=O)[C@H](C(C)(C)C)NC1=O [compound 469, Ac-hLeu-Y-C-Tbg-G-PipAla-ThpA-D-V-Y-C-5FW-[(2S, 3R)beta-OH-Phe]-hydroxyVal-dLys(DOTA)-COOH] (Ac-[hLeu]YC[Tle]G[Ala(piperidin-4-yl)][Ala(4-THP)]DVYC[Trp(5-F)][Phe(3R-OH)][Val(3-OH)][dK](DOTA)-OH; disulfide 3-11)
7 | < 1 | CC(=O)N[C@@H](CCC(C)C)C(=O)N[C@@H](Cc1ccc(O)cc1)C(=O)N[C@H]1CSSC[C@@H](C(=O)N[C@@H](Cc2c[nH]c3ccc(F)cc23)C(=O)N[C@@H](Cc2ccccc2F)C(=O)N[C@H](C(=O)N[C@H](CCCCNC(=O)CN2CCN(CC(=O)O)CCN(CC(=O)O)CCN(CC(=O)O)CC2)C(=O)O)C(C)(C)O)NC(=O)[C@H](Cc2ccc(O)cc2)NC(=O)[C@H](C(C)C)NC(=O)[C@H](CC(=O)O)NC(=O)[C@H](CC2CCOCC2)NC(=O)[C@H](CC2CCNCC2)NC(=O)CNC(=O)[C@H](C(C)(C)C)NC1=O [compound 470, Ac-hLeu-Y-C-Tbg-G-PipAla-ThpA-D-V-Y-C-5FW-2FPhe-hydroxyVal-dLys(DOTA)-COOH] (Ac-[hLeu]YC[Tle]G[Ala(piperidin-4-yl)][Ala(4-THP)]DVYC[Trp(5-F)][Phe(2-F)][Val(3-OH)][dK](DOTA)-OH; disulfide 3-11)
8 | 1 to 10 | CC(=O)N[C@@H](CCC(C)C)C(=O)N[C@@H](Cc1ccc(O)cc1)C(=O)N[C@H]1CSSC[C@@H](C(=O)N[C@@H](Cc2c[nH]c3ccc(C)cc23)C(=O)N[C@@H](Cc2ccccc2)C(=O)N[C@H](C(=O)N[C@H](CCCCNC(=O)CN2CCN(CC(=O)O)CCN(CC(=O)O)CCN(CC(=O)O)CC2)C(=O)O)C(C)(C)O)NC(=O)[C@H](Cc2ccc(O)cc2)NC(=O)[C@H](C(C)C)NC(=O)[C@H](CC(=O)O)NC(=O)[C@H](CC2CCOCC2)NC(=O)[C@H](CC2CCNCC2)NC(=O)CNC(=O)[C@H](C(C)(C)C)NC1=O [compound 471, Ac-hLeu-Y-C-Tbg-G-PipAla-ThpA-D-V-Y-C-5MeW-F-hydroxyVal-dLys(DOTA)-COOH] (Ac-[hLeu]YC[Tle]G[Ala(piperidin-4-yl)][Ala(4-THP)]DVYC[Trp(5-Me)]F[Val(3-OH)][dK](DOTA)-OH; disulfide 3-11)
9 | 1 to 10 | CC(=O)N[C@@H](CCC(C)C)C(=O)N[C@@H](Cc1ccc(O)cc1)C(=O)N[C@H]1CSSC[C@@H](C(=O)N[C@@H](Cc2c[nH]c3cccc(Cl)c23)C(=O)N[C@@H](Cc2ccccc2)C(=O)N[C@H](C(=O)N[C@H](CCCCNC(=O)CN2CCN(CC(=O)O)CCN(CC(=O)O)CCN(CC(=O)O)CC2)C(=O)O)C(C)(C)O)NC(=O)[C@H](Cc2ccc(O)cc2)NC(=O)[C@H](C(C)C)NC(=O)[C@H](CC(=O)O)NC(=O)[C@H](CC2CCOCC2)NC(=O)[C@H](CC2CCNCC2)NC(=O)CNC(=O)[C@H](C(C)(C)C)NC1=O [compound 472, Ac-hLeu-Y-C-Tbg-G-PipAla-ThpA-D-V-Y-C-4ClW-F-hydroxyVal-dLys(DOTA)-COOH] (Ac-[hLeu]YC[Tle]G[Ala(piperidin-4-yl)][Ala(4-THP)]DVYC[Trp(4-Cl)]F[Val(3-OH)][dK](DOTA)-OH; disulfide 3-11)
10 | 1 to 10 | CC(=O)N[C@@H](CCC(C)C)C(=O)N[C@@H](Cc1ccc(O)cc1)C(=O)N[C@H]1CSSC[C@@H](C(=O)N[C@@H](Cc2c[nH]c3cccc(C)c23)C(=O)N[C@@H](Cc2ccccc2)C(=O)N[C@H](C(=O)N[C@H](CCCCNC(=O)CN2CCN(CC(=O)O)CCN(CC(=O)O)CCN(CC(=O)O)CC2)C(=O)O)C(C)(C)O)NC(=O)[C@H](Cc2ccc(O)cc2)NC(=O)[C@H](C(C)C)NC(=O)[C@H](CC(=O)O)NC(=O)[C@H](CC2CCOCC2)NC(=O)[C@H](CC2CCNCC2)NC(=O)CNC(=O)[C@H](C(C)(C)C)NC1=O [compound 473, Ac-hLeu-Y-C-Tbg-G-PipAla-ThpA-D-V-Y-C-4MeW-F-hydroxyVal-dLys(DOTA)-COOH] (Ac-[hLeu]YC[Tle]G[Ala(piperidin-4-yl)][Ala(4-THP)]DVYC[Trp(4-Me)]F[Val(3-OH)][dK](DOTA)-OH; disulfide 3-11)
